We go through three substances from patent US20230399368A1, “CARRIER PEPTIDE FRAGMENT AND USE THEREOF” (TOAGOSEI CO., LTD., priority 2020, published 2023).

“Also recorded” adds a separate entry of the source. FAM = fluorescent dye FAM

The subject of this assay is HeLa cells. Put plainly: Evaluation of the cell membrane permeability by flow cytometry (FAM fluorescence) in HeLa cell culture. Conditions: for MFI (mean fluorescent intensity): 10 μM in culture medium, 0.5% DMSO, 20 hours incubation at 37° C., detector FL2, mean value of triplicate; for introduction of the fluorescent dye (FAM) into the cytoplasm, shift of the flow cytometry histogram on the X-axis (FIG. 1): compared with Example 3 (only FAM) or Example 2. The class given is cell-based, human. The procedure: The cell membrane permeability of sample 1 and sample 2 was evaluated using HeLa cells (an established cell line derived from human cervical cancer cells) as the eukaryotic cells.
HeLa cells were cultured on DMEM (Dulbecco's modified Eagle's medium (Cat. No. 043-30085, from FUJIFILM Wako Pure Chemical Corporation)) containing 10% FBS (fetal bovine serum), which is a general culture medium.
The HeLa cells attached to the culture plate were washed with PBS, a 0.25% trypsin/EDTA solution was then added, and incubation was carried out for 3 minutes at 37° C. After this incubation, the aforementioned DMEM containing 10% FBS was added and the trypsin was inactivated, and the cells were then sedimented by carrying out centrifugal separation for 5 minutes at 150×g. The supernatant produced by the centrifugal separation was removed, and the aforementioned DMEM containing 10% FBS was added to the sediment (cell pellet) to prepare a cell suspension containing approximately 1×10^5 cells/mL. The cells were seeded (approximately 2×10^5 cells/well) by the addition of 2 mL of this cell suspension to the wells of a commercial 6-well plate (Iwaki). The cells were attached to the well bottom by culture for 3 hours at 37° C. under the condition of 5% CO2. In order to perform the evaluation of the cell membrane permeability in triplicate, the cells were seeded to three wells for the test of Example 1 and the following procedure was performed on each well.
The 2 mM sample solution 1 was then diluted with the aforementioned DMEM containing 10% FBS to prepare a sample solution 1 in which the sample 1 concentration was 20 μM. After the aforementioned 3-hour culture, 1 mL of the culture supernatant was removed from the well, followed by the addition to the well of 1 mL of the 20 μM sample solution 1 (i.e., the concentration of sample 1 in the culture medium in the well was brought to 10 μM and the DMSO concentration was brought to 0.5%). The cells were incubated for 20 hours at 37° C. under the condition of 5% CO2. After this 20-hour incubation, the culture supernatant was removed from the well and the cells in the well were washed twice with 1 mL PBS. 200 μL of a 0.25% trypsin/EDTA solution was then added to the well and incubation was carried out for 3 minutes at 37° C. After this incubation, the trypsin was inactivated by the addition of 400 μL of the aforementioned DMEM containing 10% FBS to the well, and the cells were subsequently recovered by transferring the cell suspension in the well to a tube. The well was then washed by the further addition of 600 μL PBS to the well. The cells that had remained in the well were recovered to the tube by transferring the PBS in the well to the tube. Centrifugal separation was run on this tube for 5 minutes using conditions of 4° C. and 210×g. After the centrifugal separation, the supernatant was removed, the sediment (cell pellet) was suspended (washed) with 1 mL of PBS, and centrifugal separation was carried out using the same conditions as before. After this procedure had been performed twice, the supernatant was removed to obtain cells (cell pellet) that had been cultured on a sample 1-containing culture medium.
The cell membrane permeability of sample 1 was evaluated using the resulting cells (cell pellet) and a flow cytometer. An On-Chip Flow Cytometer (On-chip Biotechnologies Co., Ltd.) was used for the flow cytometer.
For this analysis, the cell pellet obtained as described above was suspended in 50 μL PBS. To this suspension was added 50 μL of Sample Buffer 2× for use with the indicated flow cytometer to prepare a cell suspension for submission to analysis.
Gating was performed using this flow cytometer based on forward scatter (FSC) and side scatter (SSC); the gating was set for the cell population that was the target of the analysis; and the fluorescent intensity was measured for the cell population within this gating. The analysis was performed so this cell population reached at least 5,000 or more. […]
(In flow cytometry, cells or beads pass a laser one at a time.)

“5(6)-carboxyfluorescein [Example 3, reference compound]”: the “MFI (mean fluorescent intensity)” value is listed as 6.

Turning to “FAM-KKRTLRKNDRKKR-CONH2 ({FAM}-KKRTLRKNDRKKR-NH2) [Example 2, reference compound]”, the “MFI (mean fluorescent intensity)” value is listed as 15.5. For the same substance, under “10 μM, 20 hours incubation”, the “introduction of the fluorescent dye (FAM) into the cytoplasm, shift of the flow cytometry histogram on the X-axis (FIG. 1)” value was “more efficiently introduced”.

For the substance “FAM-MAPRGFSCLLLLTSEIDLPVKRRA-COOH ({FAM}-MAPRGFSCLLLLTSEIDLPVKRRA-OH; listed as Homo sapiens) [Example 1]”, the “MFI (mean fluorescent intensity)” value came to 33.7. Moreover, the “introduction of the fluorescent dye (FAM) into the cytoplasm, shift of the flow cytometry histogram on the X-axis (FIG. 1)” value (10 μM, 20 hours incubation) is “more efficiently introduced; also recorded: shifted more to the right on the X-axis than was the histogram for Example 2”. Where the note is “10 μM, 20 hours incubation, ratio of MFI of Table 3”, the “efficiency (cell membrane permeability) compared using the MFI, Example 1 versus Example 2” value is on record as “approximately twice as high”.
